Earlier results on 1 compound are cited in US11317628B2, “Microparticle compositions comprising saflufenacil” (BASF Agro B.V., priority 2015, dated 2022).

For the data set the following is noted: background statement.

`CC(C)N(C)S(=O)(=O)NC(=O)c1cc(-n2c(=O)cc(C(F)(F)F)n(C)c2=O)c(F)cc1Cl` [Saflufenacil, 2-chloro-5-[3,6-dihydro-3-methyl-2,6-dioxo-4-(trifluoromethyl)-1-(2H)pyrimidinyl]-4-fluoro-N-[[methyl(1-methylethyl)amino]sulfonyl]benzamide]: the Solubility in water result was “only sparingly soluble in water”.
